Experimental data reported in article PMC4682775, “A Novel Vasoactive Proline-Rich Oligopeptide from the Skin Secretion of the Frog Brachycephalus ephippium” (PLoS ONE, 2015).
Read-outs that look alike come from different tables or passages of the source. Non-standard residues stand in square brackets, D forms with d. No end group written: not given here. pGlu = O=C1CC[C@@H](C(=O)O)N1

What was measured:
[1] = test system: rat thoracic aorta; test: tissue or blood; set-up: species or system rat (male Wistar)
Method: Male Wistar rats (250 ± 30 g) were maintained under controlled temperature (22 ± 1 ≡C), 12/12 h light/dark cycle, and had free access to water and food (Purina-Nestlé, São Paulo, SP, Brazil). Rat thoracic aortic rings were prepared according to Silva-Filho and colleagues. Briefly, aortic rings (3–4 mm) were maintained in Krebs solution (in mM: NaCl, 118.0; KCl, 4.6; CaCl2.2H2O, 2.5; MgSO4.7H2O, 5.7; NaHCO3, 25.0; KH2PO4.H2O, 1.1; and D-glucose, 11.0) under isometric tension of 1.0 g, 37°C and bubbled with 5% CO2 in 95% O2. […]. Time control contractions induced by PE, but without adding drug were obtained in parallel with other vascular segments.
The IC50 values for the ACE activity and the pD2 values for the vasodilator curves were obtained by non-linear regression. All values were expressed as means ± SEM, and significances for compared values were analyzed by Student’s “t” test or One-way ANOVA followed by Bonferroni’s post-test. All procedures were performed using Graph Pad Prism 5.02™ (Graph Pad Software, Inc., San Diego, CA, USA).

[2] = test system: M3 muscarinic receptors; conditions: ref [17]; cited from earlier work
[3] = test system: rat aorta; conditions: cited from earlier work
Description: […]. NO is an important endothelium-derived vasodilator and is pivotal in several biological processes. The increase in NO production plays a pivotal role in the cardiovascular effects of BPPs.

[4] = test system: HEK293 cells; conditions: chemiluminescence assay, ref [15],[17]; cited from earlier work
Description: It is essentially non-fluorescent until it reacts with NO to form a highly fluorescent benzotriazole. ...

[5] = test system: M1 muscarinic receptor and B2 bradykinin receptor; conditions: ref [15]; cited from earlier work
[6] = cited from earlier work
[7] = test system: argininosuccinate syntethase enzyme (AsS); conditions: followed by increased L-arginine levels and formation of NO; ref [14]; cited from earlier work
[8] = test system: human hypertension; conditions: parenteral administration, in contrast to oral administration; ref [10]; cited from earlier work
Description: The Bj-BPP-5a was the first BPP for which the amino acid sequence was described. Bj-BPP-5a is present in hydroalcoholic extracts of the snake venom Bothrops jararaca. […] Captopril was the fir ...

[9] = molecular target: T1, ACE (Rattus norvegicus, UniProt P47820); test: biochemical; set-up: species or system rat (Wistar rat serum); conditions: rat serum ACE; 1.0 mM hippuryl-His-Leu-OH, 20 mM Tris-HCl pH 8.1, 0.3 M NaCl, 37°C, 30 min, duplicate; inhibitor 0.05 to 50 μM; non-linear regression; read-out: IC50, ACE inhibition
T1 construct: 20 μL of enzyme-containing serum; from tissue; host or cells: fresh Wistar rat serum
Method: Fresh Wistar rat serum was used as source of ACE in these reactions, and the product H-His-Leu-OH was measured fluorimetrically following derivatization with o-phtaldialdehyde, as described [24, 25]. Reactions were carried out, in duplicate, at 37°C for 30 min in 200 μL of 20 mM Tris-HCl buffer, pH 8.1, 0.3 M NaCl, 1.0 mM H-hippuryl-His-Leu-OH, 20 μL of enzyme-containing serum and different inhibitor concentrations as described above.

[10] = test system: VSMCs; conditions: rat aortic VSMCs; 10^−12 to 10^−5 M, 24 hours, MTT 4 hours, n = 3
[11] = test system: HUVECs; conditions: 10^−12 to 10^−5 M, 24 hours, MTT 4 hours, n = 3

T1 sequence (P47820 36-1313): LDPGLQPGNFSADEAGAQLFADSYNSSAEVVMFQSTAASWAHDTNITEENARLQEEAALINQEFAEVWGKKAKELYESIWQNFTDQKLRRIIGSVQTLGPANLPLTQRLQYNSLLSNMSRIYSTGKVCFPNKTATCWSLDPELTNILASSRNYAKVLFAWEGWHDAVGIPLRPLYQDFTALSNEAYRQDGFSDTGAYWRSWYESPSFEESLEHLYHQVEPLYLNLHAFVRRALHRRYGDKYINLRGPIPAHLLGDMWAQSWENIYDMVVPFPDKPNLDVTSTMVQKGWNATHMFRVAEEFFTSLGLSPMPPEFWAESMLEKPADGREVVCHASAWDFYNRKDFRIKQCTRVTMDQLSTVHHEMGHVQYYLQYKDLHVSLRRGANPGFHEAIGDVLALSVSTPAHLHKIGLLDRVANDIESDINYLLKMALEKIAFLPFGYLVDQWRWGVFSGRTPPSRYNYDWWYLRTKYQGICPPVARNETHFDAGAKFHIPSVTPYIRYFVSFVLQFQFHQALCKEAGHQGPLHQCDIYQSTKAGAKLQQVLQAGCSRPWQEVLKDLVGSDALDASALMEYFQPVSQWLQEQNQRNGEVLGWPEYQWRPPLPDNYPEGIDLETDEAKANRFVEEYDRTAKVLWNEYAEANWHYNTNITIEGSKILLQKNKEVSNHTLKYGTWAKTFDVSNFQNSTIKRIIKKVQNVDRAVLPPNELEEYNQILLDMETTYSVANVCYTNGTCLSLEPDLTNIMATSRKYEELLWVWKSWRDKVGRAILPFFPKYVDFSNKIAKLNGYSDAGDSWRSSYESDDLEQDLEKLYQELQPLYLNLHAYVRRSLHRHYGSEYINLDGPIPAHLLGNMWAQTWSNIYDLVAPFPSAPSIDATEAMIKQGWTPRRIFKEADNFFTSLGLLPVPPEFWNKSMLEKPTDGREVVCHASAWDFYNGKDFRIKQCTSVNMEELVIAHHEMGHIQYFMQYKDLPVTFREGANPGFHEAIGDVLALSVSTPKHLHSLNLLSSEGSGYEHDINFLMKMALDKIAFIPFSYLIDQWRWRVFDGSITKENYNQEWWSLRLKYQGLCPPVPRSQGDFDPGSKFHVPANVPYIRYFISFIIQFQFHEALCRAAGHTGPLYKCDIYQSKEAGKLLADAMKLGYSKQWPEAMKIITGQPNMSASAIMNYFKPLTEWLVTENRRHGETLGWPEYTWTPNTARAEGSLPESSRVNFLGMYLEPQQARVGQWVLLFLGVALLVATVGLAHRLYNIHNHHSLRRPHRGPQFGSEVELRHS

C[C@H](CS)C(=O)N1CCC[C@H]1C(=O)O [captopril]
Emax ([1]; Rattus norvegicus, endothelium intact (E+), phenylephrine 3 × 10^−7 M, 10^−9–3 × 10^−5 M cumulative, Krebs 37°C, means ± SEM, n = 6, read-out: Emax (relaxation)): 32.1 ± 4.2%
vasodilatation (result in words) ([1]; endothelium dependence): endothelium-dependent vasodilatation
vasodilatation, captopril and BPP-BrachyNH2 compared ([1]; result in words): equipotent and of the same magnitude

<EGGWPRPGPEIPP ([pGlu]GGWPRPGPEIPP) [Bj-BPP-13a]
receptors to which increase of NO production is related [2]: related to the M3 muscarinic receptors activation

<EKWAP [Bj-BPP-5a]
vasodilatory effects ([3]; in vitro and in vivo, ref [45] (TsHpt-I), [16] and [15] (Bj-BPP-5a)): vasodilatory effects
endothelium-dependent relaxation ([3]; rat aorta, ref [16],[45]): endothelium-dependent relaxations sensitive to eNOS inhibition
NO release [4]: increase NO release
receptors on which increment of NO production depends [5]: depends on M1 muscarinic receptor and B2 bradykinin receptor activation
antihypertensive effect ([6]; NO dependence, ref [16]): NO-dependent anti-hypertensive effect

<ENWPHPQIPP ([pGlu]NWPHPQIPP) [Bj-BPP-10c]
argininosuccinate syntethase (AsS) activation [7]: activation of the argininosuccinate syntethase enzyme (AsS)
antihypertensive effect ([6]; result in words, ref [13]): ACE-independent antihypertensive effect

<EWPRPQIPP (N-terminal pyroglutamate) [Bj-BPP-9a]
benefit in treatment of human hypertension [8]: showed benefits

WPPPKVSP-NH2 [BPP-BrachyNH2]
IC50 [9]: 8.2 µM
reversibility / lethality to vascular cells ([1]; after wash and 30 min stabilization, new PE contraction, data not shown): reversible and non-lethal to vascular cells
cell viability / cytotoxicity [10]: No cytotoxic effects were observed
cell viability / cytotoxicity [11]: No cytotoxic effects were observed
